Reference: patent publication US8802597B2, “Herbicidal pyrimidines” (E I du Pont de Nemours and Company, priority 2003, dated 2014)
Like-named read-outs stand apart in the source and are kept apart here.

Columns and labels:
Assay in all cases: Test C pre/postemergence
Format in all cases: in vivo
[1] = system: bermudagrass (Cynodon dactylon); details: Cynodon dactylon; for pest or weed control at 62 g/ha: 62 g ai/ha; for pest or weed control at 125 g/ha: 125 g ai/ha; for pest or weed control at 125 g/ha / pest or weed control at 250 g/ha / pest or weed control at 500 g/ha: scale 0 to 100; for pest or weed control at 250 g/ha: 250 g ai/ha; for pest or weed control at 500 g/ha: 500 g ai/ha
Outline: (§1)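 Seeds sown and sprayed preemergence with test compound in non-phytotoxic solvent containing surfactant; postemergence sprays, same formulation, went onto plants 2 to 18 cm tall (1- to 4-leaf stage). Plants held in greenhouse 12 to 14 days, then visually rated against untreated controls on a 0–100 scale (0 no effect, 100 complete control).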

[2] = system: cocklebur (Xanthium strumarium); details: Xanthium strumarium; for pest or weed control at 62 g/ha: 62 g ai/ha; for pest or weed control at 125 g/ha: 125 g ai/ha; for pest or weed control at 250 g/ha: 250 g ai/ha; for pest or weed control at 500 g/ha: 500 g ai/ha
Outline: as §1

[3] = system: common (oilseed) sunflower (Helianthus annuus); details: Helianthus annuus, pre-emergence, Preemergence, read-out: Plant response rating, Sunflower
Outline: as §1

[4] = system: common ragweed (Ambrosia elatior); details: Ambrosia artemisiifolia; for pest or weed control at 62 g/ha: 62 g ai/ha; for pest or weed control at 125 g/ha: 125 g ai/ha; for pest or weed control at 250 g/ha: 250 g ai/ha; for pest or weed control at 500 g/ha: 500 g ai/ha
Outline: as §1

[5] = system: eastern black nightshade (Solanum ptycanthum); details: Solanum, pre-emergence, Preemergence, read-out: Plant response rating, Nightshade
Outline: as §1

[6] = system: goosegrass (Eleusine indica); details: Eleusine indica; for pest or weed control at 62 g/ha: 62 g ai/ha; for pest or weed control at 125 g/ha: 125 g ai/ha; for pest or weed control at 250 g/ha: 250 g ai/ha; for pest or weed control at 500 g/ha: 500 g ai/ha
Outline: as §1

[7] = system: johnsongrass (Sorghum halepense); details: Sorghum halepense; for pest or weed control at 62 g/ha: 62 g ai/ha; for pest or weed control at 125 g/ha: 125 g ai/ha; for pest or weed control at 250 g/ha: 250 g ai/ha; for pest or weed control at 500 g/ha: 500 g ai/ha
Outline: as §1

kochia (Kochia scoparia) = details: Bassia scoparia; for pest or weed control at 62 g/ha: 62 g ai/ha; for pest or weed control at 125 g/ha: 125 g ai/ha; for pest or weed control at 250 g/ha: 250 g ai/ha; for pest or weed control at 500 g/ha: 500 g ai/ha
Outline: as §1

[8] = system: lambsquarters (Chenopodium album); details: Chenopodium album; for pest or weed control at 62 g/ha: 62 g ai/ha; for pest or weed control at 125 g/ha: 125 g ai/ha; for pest or weed control at 250 g/ha: 250 g ai/ha; for pest or weed control at 500 g/ha: 500 g ai/ha
Outline: as §1

[9] = system: pigweed (Amaranthus retroflexus); details: Amaranthus retroflexus; for pest or weed control at 62 g/ha: 62 g ai/ha; for pest or weed control at 125 g/ha: 125 g ai/ha; for pest or weed control at 250 g/ha: 250 g ai/ha; for pest or weed control at 500 g/ha: 500 g ai/ha
Outline: as §1

soybean (Glycine max) = details: Glycine max; for plant injury at 62 g/ha: 62 g ai/ha; for plant injury at 125 g/ha: 125 g ai/ha; for plant injury at 250 g/ha: 250 g ai/ha; for plant injury at 500 g/ha: 500 g ai/ha
Outline: as §1

[10] = system: velvetleaf (Abutilon theophrasti); details: Abutilon theophrasti; for pest or weed control at 62 g/ha: 62 g ai/ha; for pest or weed control at 125 g/ha: 125 g ai/ha; for pest or weed control at 250 g/ha: 250 g ai/ha; for pest or weed control at 500 g/ha: 500 g ai/ha
Outline: as §1

[11] = post-emergence, Postemergence, read-out: Plant response rating, Bermudagrass
[12] = pre-emergence, Preemergence, read-out: Plant response rating, Bermudagrass
[13] = post-emergence, Postemergence, scale 0 to 100 (0 no effect, 100 complete control), read-out: Cocklebur plant response rating
[14] = post-emergence, Postemergence, scale 0 to 100, read-out: Plant response rating, Cocklebur
[15] = pre-emergence, Preemergence, scale 0 to 100, read-out: Plant response rating, Cocklebur
[16] = 62 g ai/ha, scale 0 to 100, 0 no effect, 100 complete control
[17] = post-emergence, Postemergence, scale 0 to 100 (0 no effect, 100 complete control), read-out: Ragweed plant response rating
[18] = post-emergence, Postemergence, scale 0 to 100, read-out: Plant response rating, Ragweed
[19] = pre-emergence, Preemergence, scale 0 to 100, read-out: Plant response rating, Ragweed
[20] = post-emergence, Postemergence, scale 0 to 100 (0 no effect, 100 complete control), read-out: Goosegrass plant response rating
[21] = post-emergence, Postemergence, scale 0 to 100, read-out: Plant response rating, Goosegrass
[22] = pre-emergence, Preemergence, scale 0 to 100, read-out: Plant response rating, Goosegrass
[23] = post-emergence, Postemergence, scale 0 to 100 (0 no effect, 100 complete control), read-out: Johnsongrass plant response rating
[24] = post-emergence, Postemergence, scale 0 to 100, read-out: Plant response rating, Johnsongrass
[25] = pre-emergence, Preemergence, scale 0 to 100, read-out: Plant response rating, Johnsongrass
[26] = post-emergence, Postemergence, scale 0 to 100 (0 no effect, 100 complete control), read-out: Kochia plant response rating
[27] = post-emergence, Postemergence, scale 0 to 100, read-out: Plant response rating, Kochia
[28] = pre-emergence, Preemergence, scale 0 to 100, read-out: Plant response rating, Kochia
[29] = post-emergence, Postemergence, scale 0 to 100 (0 no effect, 100 complete control), read-out: Lambsquarters plant response rating
[30] = post-emergence, Postemergence, scale 0 to 100, read-out: Plant response rating, Lambsquarters
[31] = pre-emergence, Preemergence, scale 0 to 100, read-out: Plant response rating, Lambsquarters
[32] = post-emergence, Postemergence, scale 0 to 100 (0 no effect, 100 complete control), read-out: Pigweed plant response rating
[33] = post-emergence, Postemergence, scale 0 to 100, read-out: Plant response rating, Pigweed
[34] = pre-emergence, Preemergence, scale 0 to 100, read-out: Plant response rating, Pigweed
[35] = post-emergence, Postemergence, scale 0 to 100 (0 no effect, 100 complete control), read-out: Soybean plant response rating
[36] = post-emergence, Postemergence, scale 0 to 100, read-out: Plant response rating, Soybean
[37] = pre-emergence, Preemergence, scale 0 to 100, read-out: Plant response rating, Soybean
[38] = post-emergence, Postemergence, scale 0 to 100 (0 no effect, 100 complete control), read-out: Velvetleaf plant response rating
[39] = post-emergence, Postemergence, scale 0 to 100, read-out: Plant response rating, Velvetleaf
[40] = pre-emergence, Preemergence, scale 0 to 100, read-out: Plant response rating, Velvetleaf

CCOC(=O)c1nc(C2CC2)nc(N)c1Br [Compound 1, ethyl 6-amino-5-bromo-2-cyclopropyl-4-pyrimidinecarboxylate]
80%: pest or weed control at 62 g/ha [3, 16] | pest or weed control at 250 g/ha [7, 25] | pest or weed control at 62 g/ha ([10]; pre-emergence, Preemergence, scale 0 to 100, 0 no effect, 100 complete control, read-out: Plant response rating, Velvetleaf)
10%: pest or weed control at 250 g/ha [6, 22]
100%: pest or weed control at 125 g/ha [2, 13] | pest or weed control at 250 g/ha [2, 14] | pest or weed control at 500 g/ha [2, 14] | pest or weed control at 125 g/ha [2, 15] | pest or weed control at 250 g/ha [2, 15] | pest or weed control at 500 g/ha [2, 15] | pest or weed control at 125 g/ha ([3]; 125 g ai/ha, scale 0 to 100) | pest or weed control at 250 g/ha ([3]; 250 g ai/ha, scale 0 to 100) | pest or weed control at 500 g/ha ([3]; 500 g ai/ha, scale 0 to 100) | pest or weed control at 62 g/ha [4, 17] | pest or weed control at 125 g/ha [4, 17] | pest or weed control at 250 g/ha [4, 18] | pest or weed control at 500 g/ha [4, 18] | pest or weed control at 125 g/ha [4, 19] | pest or weed control at 250 g/ha [4, 19] | pest or weed control at 500 g/ha [4, 19] | pest or weed control at 62 g/ha [5, 16] | pest or weed control at 125 g/ha ([5]; 125 g ai/ha, scale 0 to 100) | pest or weed control at 250 g/ha ([5]; 250 g ai/ha, scale 0 to 100) | pest or weed control at 500 g/ha ([5]; 500 g ai/ha, scale 0 to 100) | pest or weed control at 62 g/ha (kochia (Kochia scoparia); [26]) | pest or weed control at 125 g/ha (kochia (Kochia scoparia); [26]) | pest or weed control at 250 g/ha (kochia (Kochia scoparia); [27]) | pest or weed control at 500 g/ha (kochia (Kochia scoparia); [27]) | pest or weed control at 125 g/ha (kochia (Kochia scoparia); [28]) | pest or weed control at 250 g/ha (kochia (Kochia scoparia); [28]) | pest or weed control at 500 g/ha (kochia (Kochia scoparia); [28]) | pest or weed control at 62 g/ha [8, 29] | pest or weed control at 125 g/ha [8, 29] | pest or weed control at 250 g/ha [8, 30] | pest or weed control at 500 g/ha [8, 30] | pest or weed control at 125 g/ha [8, 31] | pest or weed control at 250 g/ha [8, 31] | pest or weed control at 500 g/ha [8, 31] | pest or weed control at 125 g/ha [9, 32] | pest or weed control at 250 g/ha [9, 33] | pest or weed control at 500 g/ha [9, 33] | pest or weed control at 125 g/ha [9, 34] | pest or weed control at 250 g/ha [9, 34] | pest or weed control at 500 g/ha [9, 34] | plant injury at 62 g/ha (soybean (Glycine max); [35]) | plant injury at 125 g/ha (soybean (Glycine max); [35]) | plant injury at 250 g/ha (soybean (Glycine max); [36]) | plant injury at 500 g/ha (soybean (Glycine max); [36]) | plant injury at 125 g/ha (soybean (Glycine max); [37]) | plant injury at 250 g/ha (soybean (Glycine max); [37]) | plant injury at 500 g/ha (soybean (Glycine max); [37]) | pest or weed control at 250 g/ha [10, 39] | pest or weed control at 500 g/ha [10, 39] | pest or weed control at 500 g/ha [10, 40]
0%: pest or weed control at 62 g/ha ([1]; pre-emergence, Preemergence, scale 0 to 100, 0 no effect, 100 complete control, read-out: Plant response rating, Bermudagrass) | pest or weed control at 62 g/ha [6, 20] | pest or weed control at 125 g/ha [6, 20] | pest or weed control at 62 g/ha ([6]; pre-emergence, Preemergence, scale 0 to 100, 0 no effect, 100 complete control, read-out: Plant response rating, Goosegrass) | pest or weed control at 125 g/ha [6, 22] | pest or weed control at 62 g/ha ([7]; pre-emergence, Preemergence, scale 0 to 100, 0 no effect, 100 complete control, read-out: Plant response rating, Johnsongrass)
95%: pest or weed control at 62 g/ha ([4]; pre-emergence, Preemergence, scale 0 to 100, 0 no effect, 100 complete control, read-out: Plant response rating, Ragweed) | pest or weed control at 62 g/ha (kochia (Kochia scoparia); pre-emergence, Preemergence, scale 0 to 100, 0 no effect, 100 complete control, read-out: Plant response rating, Kochia) | pest or weed control at 62 g/ha ([8]; pre-emergence, Preemergence, scale 0 to 100, 0 no effect, 100 complete control, read-out: Plant response rating, Lambsquarters) | pest or weed control at 250 g/ha [10, 40]
50%: pest or weed control at 125 g/ha [1, 12]
30%: pest or weed control at 62 g/ha [7, 23] | pest or weed control at 125 g/ha [7, 23] | pest or weed control at 125 g/ha [7, 25]
40%: pest or weed control at 250 g/ha [6, 21]
85%: plant injury at 62 g/ha (soybean (Glycine max); pre-emergence, Preemergence, scale 0 to 100, 0 no effect, 100 complete control, read-out: Plant response rating, Soybean) | pest or weed control at 62 g/ha [10, 38]
90%: pest or weed control at 125 g/ha [1, 11] | pest or weed control at 250 g/ha [1, 11] | pest or weed control at 500 g/ha [1, 11] | pest or weed control at 500 g/ha [1, 12] | pest or weed control at 62 g/ha [2, 13] | pest or weed control at 62 g/ha ([2]; pre-emergence, Preemergence, scale 0 to 100, 0 no effect, 100 complete control, read-out: Plant response rating, Cocklebur) | pest or weed control at 500 g/ha [7, 25] | pest or weed control at 62 g/ha [9, 32] | pest or weed control at 62 g/ha ([9]; pre-emergence, Preemergence, scale 0 to 100, 0 no effect, 100 complete control, read-out: Plant response rating, Pigweed) | pest or weed control at 125 g/ha [10, 38] | pest or weed control at 125 g/ha [10, 40]
70%: pest or weed control at 62 g/ha ([1]; post-emergence, Postemergence, scale 0 to 100 (0 no effect, 100 complete control), read-out: Bermudagrass plant response rating) | pest or weed control at 250 g/ha [1, 12] | pest or weed control at 500 g/ha [6, 21] | pest or weed control at 500 g/ha [6, 22] | pest or weed control at 250 g/ha [7, 24] | pest or weed control at 500 g/ha [7, 24]
